Assay results published in PubChem BioAssay (NCI).
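In this assay, cells in 96-well plates receive the compound at five concentrations for 48 hours. Endpoints are linearly interpolated between the surrounding concentrations. GI50 marks 50% less growth. TGI: concentration producing complete growth inhibition.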

Key:
Test in all cases: NCI-60 cell line screen, 48 h
SN12C renal = test system: SN12C renal
RPMI-8226 leukemia = test system: RPMI-8226 leukemia
M14 melanoma = test system: M14 melanoma
U251 CNS = test system: U251 CNS
SNB-19 CNS = test system: SNB-19 CNS
OVCAR-3 ovarian = test system: OVCAR-3 ovarian
HOP-62 NSCLC = test system: HOP-62 NSCLC
A549 NSCLC = test system: A549 NSCLC
UACC-257 melanoma = test system: UACC-257 melanoma
MDA-MB-435 = test system: MDA-MB-435

Row | Compound | TGI (SN12C renal) [µM] | TGI (RPMI-8226 leukemia) [µM] | TGI (M14 melanoma) [µM] | TGI (U251 CNS) [µM] | TGI (SNB-19 CNS) [µM] | TGI (OVCAR-3 ovarian) [µM] | TGI (HOP-62 NSCLC) [µM] | TGI (A549 NSCLC) [µM] | TGI (UACC-257 melanoma) [µM] | GI50 (SN12C renal) [µM] | GI50 (RPMI-8226 leukemia) [µM] | GI50 (M14 melanoma) [µM] | GI50 (U251 CNS) [µM] | GI50 (SNB-19 CNS) [µM] | GI50 (MDA-MB-435) [µM] | TGI (MDA-MB-435) [µM] | GI50 (HOP-62 NSCLC) [µM] | GI50 (A549 NSCLC) [µM] | GI50 (UACC-257 melanoma) [µM]
1 | O=C1OC(=O)C2C3CCC(O3)C12 (configuration not stated) | > 100 | > 100 | > 100 | > 100 | > 100 | > 100 | > 100 | > 100 | > 100 | – | – | – | – | – | – | – | – | – | –
2 | NC(C(=O)O)C(N)C(=O)O (configuration not stated) | > 100 | > 100 | > 100 | > 100 | > 100 | > 100 | > 100 | > 100 | > 100 | – | – | – | – | – | – | – | – | – | –
3 | CN/N=C(\C)CC(=O)Nc1cccc(Cl)c1C | > 100 | > 100 | > 100 | > 100 | > 100 | > 100 | > 100 | > 100 | > 100 | – | – | – | – | – | – | – | – | – | –
4 | COC(=O)C(C(=O)C(=O)Nc1ccccc1OC)c1csc(-n2nc(-c3ccccc3)cc2-c2ccccc2)n1 (configuration not stated) | > 100 | > 100 | > 100 | > 100 | > 100 | > 100 | > 100 | > 100 | > 100 | – | – | – | – | – | – | – | – | – | –
5 | COC1OC(C)C(OC(=O)C(C)(C)C)C(C)(O)C1O (configuration not stated) | > 100 | > 100 | > 100 | > 100 | > 100 | > 100 | > 100 | > 100 | > 100 | – | – | – | – | – | – | – | – | – | –
6 | CC1CC2C3CC(F)C4=CC(=O)C=CC4(C)C3(F)C(O)CC2(C)C1(O)C(=O)CO (configuration not stated) | – | > 100 | > 100 | > 100 | > 100 | > 100 | > 100 | > 100 | > 100 | – | – | – | – | – | – | – | – | – | –
7 | O=C(NCCNCCO)c1ccc2oc3cc4ccccc4c(=O)n3c2c1 | 33 | 35.6 | 16.7 | 17.1 | 40.9 | – | 25.5 | > 50 | 20.2 | 10.7 | 12.5 | 8.6 | 8.52 | 14.1 | 10.3 | 24.2 | 9.6 | 17.6 | 9.88
8 | COc1ccc(-c2c(N)[n+]([O-])c3cc(C)c(C)cc3[n+]2[O-])cc1OC | > 100 | > 100 | > 100 | > 100 | > 100 | > 100 | > 100 | > 100 | > 100 | – | – | – | – | – | – | – | – | – | –
9 | O=C1C=C(Br)C(=O)C(Br)=C1 | > 100 | > 82.2 | > 100 | > 100 | > 100 | > 100 | > 100 | > 100 | > 100 | – | – | – | – | – | – | – | – | – | –
10 | O=C(O)C1Cc2nc[nH]c2CN1 (configuration not stated) | > 100 | > 100 | > 100 | > 100 | > 100 | > 100 | – | > 100 | > 100 | – | – | – | – | – | – | – | – | – | –
11 | CC(=O)N1c2ccccc2C23CCN4CC5=CCOC(O)C(C5CC42)C13 (configuration not stated) | > 100 | > 100 | > 100 | > 100 | > 100 | > 100 | – | > 100 | > 100 | – | – | – | – | – | – | > 100 | – | – | –
12 | COc1cc2c(cc1OC)-c1c(cc(OC)c(OC)c1OC)C2=O | > 100 | > 100 | > 100 | > 100 | > 100 | > 100 | > 100 | > 100 | > 100 | – | – | – | – | – | – | – | – | – | –
13 | CC(C)OCN1COCN=C1NC#N | > 100 | – | > 100 | > 100 | > 100 | > 100 | > 100 | > 100 | > 100 | – | – | – | – | – | – | – | – | – | –
14 | O=C1CCC(=O)c2cc(Br)ccc2N1 | > 100 | > 100 | > 100 | > 100 | > 100 | > 100 | > 100 | > 100 | > 100 | – | – | – | – | – | – | – | – | – | –
15 | O=C(Nc1cc(C(F)(F)F)ccc1Cl)C(=O)C(C(=O)c1ccc2ccccc2c1)C1OC(=O)c2ccccc21 (configuration not stated) | 21 | > 54.5 | 25 | 14.3 | 20.6 | > 50.7 | 16.1 | > 100 | 26 | – | – | – | – | – | – | – | – | – | –
16 | O=C(N/N=C/c1cc2ccccc2c2ccccc12)c1cc(O)c(O)c(O)c1 | 30 | 46.1 | 18.2 | 14 | 18.7 | – | 12.4 | 39.2 | 24.6 | 4.99 | 7.47 | 4.34 | 2.96 | 3.6 | 3.58 | 16.9 | 3.37 | 12.7 | 10.2
17 | COc1ccc(C(=O)C(C(=O)C(=O)Nc2nc3ccc(OC)cc3s2)c2ccc(OC)cc2)cc1 (configuration not stated) | > 100 | > 100 | > 100 | > 100 | > 100 | > 100 | > 100 | > 100 | > 100 | – | – | – | – | – | – | – | – | – | –
18 | CC(NC1CCC[C@H]1O)c1ccccc1 (mixture of isomers) | > 100 | > 100 | > 100 | > 100 | > 100 | > 100 | > 100 | > 100 | > 100 | – | – | – | – | – | – | – | – | – | –
19 | C=C(C)C1CC[C@]2(C(=O)O)CCC3(C)[C@H](CCC4[C@@]5(C)CC[C@H](OC6OC(CO)C(O)C6OC6OC(C)C(O)C(O)C6O)[C@@](C)(CO)C5CC[C@]43C)C12 (some centres not stated) | > 100 | – | > 100 | > 100 | > 100 | > 100 | > 100 | > 100 | – | – | – | – | – | – | – | – | – | – | –
20 | COC(=O)C1CCc2c(OC)ccc(OC)c2C1=O (configuration not stated) | – | > 100 | > 100 | > 100 | > 100 | > 100 | > 100 | > 100 | > 100 | – | – | – | – | – | – | – | – | – | –
21 | COc1cc(C2C(C(=O)O)=C(C)Oc3cc4c(cc32)OCO4)cc(OC)c1OC (configuration not stated) | > 100 | – | > 100 | > 100 | > 100 | 48.1 | – | > 100 | > 100 | – | – | – | – | – | – | – | – | – | –
22 | CC(=O)Nc1ccc(/C=c2\sc3nnc(/C=C/c4ccccc4)n3c2=O)cc1 | > 50 | > 50 | > 50 | > 50 | > 50 | > 50 | > 50 | > 50 | > 50 | – | – | – | – | – | – | – | – | – | –
23 | COCCN1C2=CCCCC2=Nc2c(N)nc(N)nc21 | > 100 | > 100 | > 100 | > 100 | > 100 | 77.7 | > 100 | > 100 | > 100 | – | – | – | – | – | – | – | – | – | –
